Test results taken from US20230203060A1 (GENFLEET THERAPEUTICS (SHANGHAI) INC., priority 2020, published 2023).
Like-named read-outs stand apart in the source and are kept apart here.

Assays:
Format in all cases: cell-based, human
[1] = test system: KRAS G12C mutant NCI-H358 cells; test: Cell proliferation inhibition experiment, 3D spheroid, CellTiter-Glo, NCI-H358; conditions: NCI-H358 (KRAS G12C mutant) 3D spheroid, 5 days with compound, CellTiter-Glo, read-out: H358 IC50
From the text: (§1) Raw materials and instruments: NCI-H358 purchased from ATCC; article number: CRL-5807; batch number: 70010825; A549 purchased from ATCC; article number: CCL-185; batch number: 70007820; RPMI1640 purchased from Gibco; article number: 11875-093; batch number: 2152748; F-12K purchased from Gibco; article number: 21127-022; batch number: 2185853; FBS purchased from Gibco; article number: 10099-141; batch number: 2109290CP; PS purchased from Gibco; article number: 15140-122; batch number: 2145451; Trypsin-EDTApurchased from Gibco; article number: 25200-072; batch number: 2085552; CellTiter Glo working solution purchased from Promega; article number: G9683; batch number: 398478; DMSO purchased from VWR AMRESCO; article number: 0231-500ML; batch number: 18C0656168; 384-well spheroid plate purchased from Corning; article number: 3830; batch number: 27519032; white opaque 384-well plate purchased from Corning; article number: 3570; batch number: 26819023; microplate reader purchased from PerkinElmer; model: Envision MLD2105-0020; equipment number 1050369.
(§2) NCI-H358 is a KRAS G12C mutant human non-small cell lung cancer cell line, cultured in 10% FBS RPMI-1640+1% PS culture medium; and A549 is a KRAS G12S mutant human lung adenocarcinoma cell line, cultured in 10% FBS F-12K+1% PS culture medium. Cells at logarithmic growth stage were taken, digested with trypsin-EDTA, then collected and counted. H358 was adjusted to 1.8 E4 cells/mL with 2% FBS RPMI-1640 culture medium, and A549 was adjusted to 8.9 E3 cells/mL with 2% FBS F-12K culture medium; 800 (45 μL) H358 or 400 (45 μL) A549 were inoculated respectively in a 384-well spheroid plate and cultured overnight to establish a 3D cell model. A 3.16-fold gradient concentration stock solution of 1000× compound was prepared with DMSO, and diluted 100-fold to 10× compound stock solution with 2% FBS culture medium. On the second day after cell inoculation, 5 μL of 10× compound stock solution was added to each cell culture well, with a final concentration of 1× and a DMSO content of 0.1%. DMSO was used as experimental control (control), and 2% FBS culture medium was used as blank control (blank). After 5 days of compound cell culture, 25 μL of CellTiter-Glo working solution was added to each well, mixed well at 400 rpm and incubated for 30 minutes. After standing at room temperature for 30 minutes, 40 μL of the mixed solution was transferred to a white opaque 384-well plate, and the luminescence chemiluminescence value was read with a microplate reader. The cell proliferation inhibition rate IR (%)=(RLU control -RLU compound)/(RLU control -RLU blank) x100% was calculated. The gradient dilution concentration of the compound and the corresponding cell proliferation inhibition rate were fitted by Prism 6 four-parameter method, and the IC50 value was calculated. The inhibitory activity of the compounds prepared in the above embodiments of the present disclosure on KRAS G12C mutant NCI-H358 cells was 0.0001 μM to 0.5 μM; the inhibitory activity of some compounds on KRAS G12C mutant NCI-H358 cells was 0.001 μM to 0.1 μM or 0.001 μM to 0.05 μM.

[2] = test system: A549 cells (KRAS G12S mutant); test: Cell proliferation inhibition experiment, 3D spheroid, CellTiter-Glo, A549; conditions: A549 (KRAS G12S mutant) 3D spheroid, 5 days with compound, CellTiter-Glo, read-out: A549 IC50
From the text: as §1, §2

[3] = test system: KRAS G12C mutant MIA PaCa-2 cells; test: Cell proliferation inhibition experiment, 3D spheroid, CellTiter-Glo, MIA PaCa-2; conditions: Homo sapiens, MIA PaCa-2, 120 h, 3D cell model in 384-well spheroid plate, 5 days, CellTiter-Glo; read-out: MIA-PaCa2 IC50
From the text: Raw materials and instruments: MIA PaCa-2 purchased from ATCC; article number: CRL-1420; batch number: 63143594; DMEM purchased from Gibco; article number: 11995-065; batch number: 2186878; FBS purchased from Gibco; article number: 10099-141; batch number: 2109290CP; Horse Serum purchased from Gibco; article number: 16050-122; batch number: 1818976; PS purchased from Gibco; article number: 15140-122; batch number: 2145451; Trypsin-EDTA purchased from Gibco; article number: 25200-072; batch number: 2085552; CellTiter Glo working solution purchased from Promega; article number: G9683; batch number 398478; DMSO purchased from VWR AMRESCO; article number: 0231-500ML; batch number: 18C0656168; 384-well spheroid plate purchased from Corning; article number: 3830; batch number: 27519032; white opaque 384-well plate purchased from Corning; article number: 3570; batch number: 26819023; microplate reader purchased from PerkinElmer; model: Envision MLD2105-0020; equipment number 1050369.
MIA PaCa-2 is a KRAS G12C mutant human pancreatic cancer cell line, cultured in 10% FBS+2.5% Horse Serum DMEM+1% PS culture medium; cells at logarithmic growth stage were taken, digested with trypsin-EDTA, then collected and counted, and 200 MIA PaCa-2 were inoculated in a 384-well spheroid plate, respectively, and cultured overnight to establish a 3D cell model. A 3.16-fold gradient concentration stock solution of 1000× compound was prepared with DMSO, and diluted 100-fold to 10× compound stock solution with culture medium. On the second day after cell inoculation, 10× compound stock solution was added to each cell culture well, with a final concentration of 1× and a DMSO content of 0.1%. DMSO was used as experimental control (control), and culture medium was used as blank control (blank). After 5 days of compound cell culture, 30 μL of CellTiter-Glo working solution was added to each well, mixed well and incubated for 30 minutes. After standing at room temperature for 30 minutes, 40 μL of the mixed solution was transferred to a white opaque 384-well plate, and the luminescence chemiluminescence value was read with a microplate reader. The cell proliferation inhibition rate IR (%)=(RLU control -RLU compound)/(RLU control−RLU blank)×100% was calculated. The gradient dilution concentration of the compound and the corresponding cell proliferation inhibition rate were fitted by XLFit four-parameter method, and the IC50 value was calculated. The inhibitory activity of the compounds prepared in the above embodiments of the present disclosure on KRAS G12C mutant MIA PaCa-2 cells was 0.0001 μM to 0.5 μM; the inhibitory activity of some compounds on KRAS G12C mutant MIA PaCa-2 cells was 0.001 μM to 0.1 μM or 0.001 μM to 0.05 μM.

Row | SMILES | IC50 ([1]; Homo sapiens, NCI-H358, 120 h) | IC50 ([2]; Homo sapiens, A549, 120 h) | IC50 [3] | IC50 [1] | IC50 [2]
1 | C=CC(=O)N1CCN2C(=O)c3c(-c4cn(C)nc4C)nc(-c4c(O)cccc4F)c(Cl)c3OC[C@H]2C1 [Z74, (6aR)-8-acryloyl-4-chloro-1-(1,3-dimethyl-1H-pyrazol-4-yl)-3-(2-fluoro-6-hydroxyphenyl)-6,6a,7,8,9,10-hexahydro-12H-pyrazino[2,1-c]pyrido[3,4-f][1,4]oxazepin-12-one] | 0.324 µM | > 30 µM |  |  | 
2 | C=CC(=O)N1CCN2C(=O)c3c(N4CCN(C5COC5)CC4C)nc(-c4c(O)cccc4F)c(Cl)c3OC[C@H]2C1 (stereo partly drawn) [Z239, (6aR)-8-acryloyl-4-chloro-3-(2-fluoro-6-hydroxyphenyl)-1-(2-methyl-4-(oxetan-3-yl)piperazin-1-yl)-6,6a,7,8,9,10-hexahydro-12H-pyrazino[2,1-c]pyrido[3,4-f][1,4]oxazepin-12-one] | 0.0229 µM | 13.8 µM | 0.0416 µM |  | 
3 | C=CC(=O)N1CCN2C(=O)c3c(N4CCOC[C@H]4C)nc(-c4c(O)cccc4F)c(Cl)c3OC[C@H]2C1 [Z27, (6aR)-8-acryloyl-4-chloro-3-(2-fluoro-6-hydroxyphenyl)-1-((R)-3-methylmorpholino)-6,6a,7,8,9,10-hexahydro-12H-pyrazino[2,1-c]pyrido[3,4-f][1,4]oxazepin-12-one] | 0.033 µM | > 5 µM | 0.041 µM |  | 
4 | C=CC(=O)N1CCN2C(=O)c3c(N4CCS(=O)(=O)CC4)nc(-c4c(O)cccc4F)c(Cl)c3OC[C@H]2C1 [Z26, (6aR)-8-acryloyl-4-chloro-1-(1,1-dioxidothiomorpholino)-3-(2-fluoro-6-hydroxyphenyl)-6,6 a,7,8,9,10-hexahydro-12H-pyrazino[2,1-c]pyrido[3,4-f][1,4]oxazepin-12-one] | 0.479 µM | > 30 µM |  |  | 
5 | C=CC(=O)N1CCN2C(=O)c3c(N4C[C@](C)(O)CC4(C)C)nc(-c4c(O)cccc4F)c(F)c3OC[C@H]2C1 (single isomer, unassigned) [Z256b-2] | 0.0447 µM |  | 0.105 µM |  | 
6 | C=CC(=O)N1CCN2C(=O)c3c(NC(=O)CC(C)(C)C)nc(-c4c(O)cccc4F)c(Cl)c3OC[C@H]2C1 [Z33, N-((6aR)-8-acryloyl-4-chloro-3-(2-fluoro-6-hydroxyphenyl)-12-oxo-6,6a,7,8,9,10-hexahydro-12H-pyrazino[2,1-c]pyrido[3,4-f][1,4]oxazepin-1-yl)-3,3-dimethylbutanamide] | 0.113 µM | > 30 µM |  |  | 
7 | C=CC(=O)N1CCN2C(=O)c3c(Nc4c(C)c(Cl)nn4C(C)C)nc(-c4c(O)cccc4F)c(Cl)c3OC[C@H]2C1 [Z16, (6aR)-8-acryloyl-4-chloro-1-((3-chloro-1-isopropyl-4-methyl-1H-pyrazol-5-yl)amino)-3-(2-fluoro-6-hydroxyphenyl)-6,6a,7,8,9,10-hexahydro-12H-pyrazino[2,1-c]pyrido[3,4-f][1,4]oxazepin-12-one] | 0.037 µM | > 1 µM |  |  | 
8 | C=CC(=O)N1CCN2C(=O)c3c(OC[C@H]4CCCN4C)nc(-c4c(O)cccc4F)c(Cl)c3OC[C@H]2C1 [Z13, (6aR)-8-acryloyl-4-chloro-3-(2-fluoro-6-hydroxyphenyl)-1-(((R)-1-methylpyrrolidin-2-yl)methoxy)-6,6a,7,8,9,10-hexahydro-12H-pyrazino[2,1-c]pyrido[3,4-f][1,4]oxazepin-12-one] | 0.051 µM | > 5 µM |  |  | 
9 | C=CC(=O)N1CCN2C(=O)c3c(N4C[C@@H](C)O[C@@H](C)C4)nc(-c4c(O)cccc4F)c(Cl)c3OC[C@H]2C1 [Z247, (6aR)-8-acryloyl-1-((2S,6R)-2,6-dimethylmorpholino)-4-chloro-3-(2-fluoro-6-hydroxyphenyl)-6,6a,7,8,9,10-hexahydro-12H-pyrazino[2,1-c]pyrido[3,4-f][1,4]oxazepin-12-one] | 0.041 µM |  | 0.047 µM |  | 
10 | C=CC(=O)N1CCN2C(=O)c3c(N4CCN5C(=O)CC[C@H]5C4)nc(-c4c(O)cccc4F)c(Cl)c3OC[C@H]2C1 (single isomer, unassigned) [Z317a-1] | 0.145 µM | > 30 µM |  |  | 
11 | C=CC(=O)N1CCN2C(=O)c3c(N4CCN5C(=O)CC[C@@H]5C4)nc(-c4c(O)cccc4F)c(Cl)c3OC[C@H]2C1 (single isomer, unassigned) [Z317a-2] | 0.108 µM | > 30 µM |  |  | 
12 | C=CC(=O)N1CCN2C(=O)c3c(N[C@H]4[C@@H]5CN(C)C[C@@H]54)nc(-c4c(O)cccc4F)c(Cl)c3OC[C@H]2C1 [Z46, (6aR)-8-acryloyl-4-chloro-3-(2-fluoro-6-hydroxyphenyl)-1-(((1R,5S,6s)-3-methyl-3-azabicyclo[3.1.0]hexan-6-yl)amino)-6,6a,7,8,9,10-hexahydro-12H-pyrazino[2,1-c]pyrido[3,4-f][1,4]oxazepin-12-one] |  |  |  | 0.46 µM | > 20 µM
13 | C=CC(=O)N1CCN2C(=O)c3c(N4CCC(N(C)C)CC4)nc(-c4c(O)cccc4F)c(Cl)c3OC[C@H]2C1 [Z31, (6aR)-8-acryloyl-4-chloro-1-(4-(dimethylamino)piperidin-1-yl)-3-(2-fluoro-6-hydroxyphenyl)-6,6a,7,8,9,10-hexahydro-12H-pyrazino[2,1-c]pyrido[3,4-f][1,4]oxazepin-12-one] | 0.176 µM | > 30 µM |  |  | 
